Source: PubChem BioAssay (NCI)
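1) Cells in 96-well plates. 2) Compound, 48 h, 5 concentrations. 3) Linear interpolation between surrounding doses. 4) Unreached endpoint = highest concentration. The concentration for 50% growth inhibition is given as GI50. TGI marks complete inhibition of growth.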

Experiments:
Assay in all cases: NCI anticancer screen, dose series, 48 h
COLO 205 colon = test system: COLO 205 colon
HL-60(TB) leukemia = test system: HL-60(TB) leukemia
KM12 colon = test system: KM12 colon
MDA-MB-435 = test system: MDA-MB-435
NCI-H226 lung = test system: NCI-H226 lung
NCI/ADR-RES ovarian = test system: NCI/ADR-RES ovarian
U251 CNS = test system: U251 CNS
ACHN renal = test system: ACHN renal
RXF 393 renal = test system: RXF 393 renal
SF-268 CNS = test system: SF-268 CNS

Row | Structure (SMILES) | TGI (COLO 205 colon) | TGI (HL-60(TB) leukemia) | TGI (KM12 colon) | TGI (MDA-MB-435) | TGI (NCI-H226 lung) | TGI (NCI/ADR-RES ovarian) | TGI (U251 CNS) | TGI (ACHN renal) | TGI (RXF 393 renal) | TGI (SF-268 CNS) | GI50 (COLO 205 colon) | GI50 (HL-60(TB) leukemia) | GI50 (NCI-H226 lung) | GI50 (NCI/ADR-RES ovarian) | GI50 (RXF 393 renal) | GI50 (SF-268 CNS) | GI50 (U251 CNS) | GI50 (KM12 colon) | GI50 (MDA-MB-435) | GI50 (ACHN renal)
1 | COc1ccc2cc(/C=N/NC(=O)Nc3ccccc3)ccc2c1 | > 100 µM | > 100 µM | > 100 µM | > 100 µM | > 100 µM | > 100 µM | > 100 µM | – | – | – | – | – | – | – | – | – | – | – | – | –
2 | CC(OC(C)(C)C)[C@H](NC(=O)OCC(Cl)(Cl)Cl)C(=O)O (some centres undefined) | > 100 µM | > 100 µM | > 100 µM | – | – | – | > 100 µM | > 100 µM | > 100 µM | > 100 µM | – | – | – | – | – | – | – | – | – | –
3 | O=c1cnn(C/C=C/CO)c(=O)[nH]1 | > 100 µM | > 100 µM | > 100 µM | > 100 µM | > 100 µM | > 100 µM | > 100 µM | > 100 µM | > 100 µM | > 100 µM | – | – | – | – | – | – | – | – | – | –
4 | Cc1[nH]nc(C(F)(F)F)c1N=NN1CCOCC1 | 11.9 µM | 6.18 µM | 21.9 µM | 26 µM | 30.4 µM | 22.1 µM | 27.7 µM | 17.7 µM | 25.1 µM | 26.8 µM | – | – | – | – | – | – | – | – | – | –
5 | O=C(O)CCC(NC(=O)c1ccc(Nc2nc3cc(C(F)(F)F)ccc3nc2-c2ccccc2)cc1)C(=O)O (centres undefined) | > 100 µM | > 100 µM | > 100 µM | – | > 100 µM | > 100 µM | > 100 µM | – | 94.8 µM | > 100 µM | – | – | – | – | – | – | – | – | – | –
6 | CC1(CCOCc2ccccc2)NC(=O)NC1=O (centres undefined) | – | – | > 100 µM | > 100 µM | > 100 µM | > 100 µM | > 100 µM | > 100 µM | > 100 µM | > 100 µM | – | – | – | – | – | – | – | – | – | –
7 | CCC(/C=C/C1OC(=O)C=CC1C)=C\C(C)C/C=C/C(C)=C/C(C)C(=O)C(C)C(O)C(C)C/C(C)=C/C(=O)O (centres undefined) | – | – | – | 2.64e-05 µM | – | 4.15 µM | 5.89 µM | – | 3.56 µM | 7.64 µM | 7.52 pM | < 1e-06 µM | 1.72e-06 µM | 0.701 µM | < 1 pM | 1.89 µM | < 1 pM | – | – | –
8 | C=C(C)[C@@H]1CC[C@]2(C(=O)NC3CCCCC3)CC[C@]3(C)[C@H](CC[C@@H]4[C@@]5(C)CCCNC(C)(C)[C@@H]5CC[C@]43C)[C@@H]12 | – | 4.61 µM | 3.64 µM | 3.15 µM | 36.2 µM | – | – | – | – | 26 µM | – | 2.12 µM | 4.83 µM | – | – | 5.29 µM | – | 1.92 µM | 1.7 µM | –
9 | c1ccc(CCNc2ccccn2)nc1 | > 100 µM | > 100 µM | > 100 µM | > 100 µM | > 100 µM | > 100 µM | > 100 µM | > 100 µM | > 100 µM | > 100 µM | – | – | – | – | – | – | – | – | – | –
10 | CC1(C)N=C(N)N=C(N)N1c1ccc(CCc2ccccc2)cc1 | 24.1 µM | 49.1 µM | > 43.1 µM | – | 59.3 µM | > 100 µM | > 100 µM | – | > 100 µM | > 65 µM | – | – | – | – | – | – | – | – | – | –
11 | O=C(Cn1c[n+](CC(=O)c2ccc(-c3ccccc3)cc2)c2ccccc21)Nc1cccc2cccnc12 | – | – | – | – | 7.33 µM | 64.8 µM | – | 10.7 µM | – | – | – | – | 2.02 µM | 18.7 µM | – | – | – | – | – | 3.06 µM
12 | NCc1ccccc1-c1c2nc(c(-c3ccccc3CN)c3ccc([nH]3)c(-c3ccccc3CN)c3nc(c(-c4ccccc4CN)c4ccc1[nH]4)C=C3)C=C2 | 97.7 µM | 33.3 µM | 50.7 µM | – | 33.4 µM | – | 51.6 µM | 35.3 µM | 43 µM | > 100 µM | – | – | – | – | – | – | – | – | – | –
